The values that follow come from US7250551B2, “Transgenic mice expressing inducible human p25” (President and Fellows of Harvard College, priority 2002, dated 2007).

In data set [1] the test system is T668 phosphorylation on APP. Nature of the data set: Ionomycin-induced T668 phosphorylation of APP in primary hippocampal neurons, Western blot. Format: cell-based, rat. As to conditions: for T668 phosphorylation induced by ionomycin: 20 μM inhibitor 15 min before 4 μM ionomycin for 5 hours. The method, then: Primary hippocampal neurons were cultured as described from E18 rat embryos (Niethammer et al. (2000) Neuron 28:697). 8-day old cultures were treated with different concentrations of ionomycin (Calbiochem). In some cases, hippocampal neurons were incubated with either 20 μM roscovitine (Calbiochem) or 20 μM butyrolactone (Calbiochem) for 15 min at 37° C. before being treated with 4 μM ionomycin for 5 hours. Neurons were lysed in SDS sample buffer and lysates were separated on a 12% acrylamide gel and analyzed by Western blotting.
To determine if neurotoxic conditions influence APP phosphorylation, primary hippocampal neurons were treated with ionomycin.

The next data set concerns rat cortical neurons. Description: MTT cell viability of rat cortical neurons expressing WT APP. It is filed as cell-based. As to conditions: rat cortical neurons expressing WT APP via HSV.
Data set [2] concerns secreted Aβ(1-40) and Aβ(1-42). Description: Aβ secreted by rat primary cortical neurons infected with HSV expressing WT APP, sandwich ELISA. It is filed as cell-based. As to conditions: rat cortical neurons expressing WT APP via HSV, inhibitor 8 hours, dose-dependent, P<0.05.
For data set [3], the system named is T668 phosphorylation of APP. Nature of the data set: T668 phosphorylation of full length APP in HSV-APP infected rat cortical neurons, Western blot. As to conditions: rat cortical neurons expressing WT APP via HSV, inhibitor 8 hours.
The subject of data set [4] is APP subcellular distribution. Nature of the data set: Distribution of WT APP in iodixanol step gradient of primary cortical neuron homogenates. As to conditions: roscovitine 15 μM for 8 hr (FIG. 18D). It is filed as cell-based, rat. The text has this: FIGS. 18A-18D depict co-fractionation of T668 phosphorylated APP with BACE1 and endosome markers. (A) Adult mouse brain lysate was fractionated through an iodixanol step gradient. […] (B) Quantification of protein distribution of A (fractions 1-20) showing that full length P-APP co-fractionates with BACE1. (C) Distribution of WT and T668A APP, expressed in rat primary cortical neurons using recombinant herpes simplex virus (HSV), in an iodixanol step gradient. The distribution pattern of BACE1 resembled that of WT APP. (D) Distribution of WT APP in an iodixanol step gradient after roscovitine treatment (15 μM for 8 hr).
FIGS. 25A-25B depict immunoblots showing distribution of APP and BACE1 in iodixanol step gradient. […] Twenty hours post infection, cell homogenates were fractionated through an iodixanol step gradient and the distributions of APP and BACE1 were analyzed. […] Cell homogenates were fractionated and the distributions of APP and BACE1 were analyzed by Western blot analysis.
To assess the significance of T668 phosphorylation in APP subcellular localization, WT APP and the T668A mutant APP were introduced into primary cortical neurons using recombinant herpes simplex virus (HSV). Twenty hours post infection, cell homogenates were fractionated through iodixanol step gradient and the distribution of APP in the collected fractions was analyzed. […]

Data set [5] concerns primary neurons from APP(Sw) Tg mice. Nature of the data set: MTT cell viability of primary neurons from APP(Sw) Tg mice. It is filed as cell-based, mouse. The following applies: roscovitine 8 hours. On the procedure: Primary cortical neurons were cultured from E15 APP(Sw) Tg mice (Tg2576) (Hsiao et al. (1996) Science 274:99) as described (Niethammer et al. (2000) Neuron 28:697). 4-day-cultured neurons were replaced with new media (DMEM/F 12) and treated with different concentrations of roscovitine (Calbiochem) for 8 hours, or with butyrolactone (Calbiochem) for 16 hours. Aβ secreted into the media from each culture was analyzed by sandwich ELISA (Biosource) according to specifications by the manufacturer. Cell viability was measured by treating neurons with MTT (Sigma) at a final concentration of 0.5 mg/ml for 1 hour. After MTT treatment, cell medium was replaced with DMSO and the optical density of at 495 nm was determined.

Data set [6] has as its system secreted Aβ(1-40) and Aβ(1-42). Description: Aβ secreted into media by primary neurons from APP(Sw) Tg mice, sandwich ELISA. It is filed as cell-based, mouse. As to conditions: roscovitine 8 hours. The method, then:
FIGS. 7A-7F depict that inhibition of Cdk5 reduces Aβ generation in a Tg mouse model of AD. (A) Inhibition of Cdk5 lead to a decrease in Aβ secretion. Primary mixed hippocampal and cortical neurons were cultured from E17 APP (Swedish) (Sw) Tg mice. 4-day-cultured neurons were treated with the indicated concentration of roscovitine for 8 hours and assayed for the level of Aβ(1-40) secreted into the media. The level of secreted Aβ(1-40) was normalized against the untreated control. The data are the averages (±s.d.) from four independent experiments. (B) As in (A), but the level of Aβ(1-42) in the media was assayed instead. (C) Cell viability was measured using the MTT assay. Cell viability was normalized against the untreated control. […] (F) Cell viability was measured using the MTT assay.
Primary cortical neurons were cultured from E15 APP(Sw) Tg mice (Tg2576) (Hsiao et al. (1996) Science 274:99) as described (Niethammer et al. (2000) Neuron 28:697). […] Aβ secreted into the media from each culture was analyzed by sandwich ELISA (Biosource) according to specifications by the manufacturer. Cell viability was measured by treating neurons with MTT (Sigma) at a final concentration of 0.5 mg/ml for 1 hour. After MTT treatment, cell medium was replaced with DMSO and the optical density of at 495 nm was determined.

For the compound `C[C@H](CCC(=O)O)C[C@H](C)C[C@H](C)C(=O)/C=C(\O)[C@H](C)C[C@H](C)C/C=C/[C@@H](C)[C@@H](O)[C@@H](C)[C@@H](O)C[C@@H]1CC[C@@](C)([C@H]2CC[C@@](C)([C@@H](C)O)O2)O1` [Ionomycin, ionomycin], in data set [1] (primary hippocampal neurons treated with ionomycin), the “T668 phosphorylation on APP” value is reported as “marked elevation”.
With `O=C1CCCO1` [butyrolactone], the “T668 phosphorylation induced by ionomycin” value in data set [1] is “inhibited”. In addition, in the data set with rat cortical neurons, the “cell viability, MTT assay” value is recorded as “not due to a decline in cell viability”. Further, in data set [2], the “levels of secreted Aβ(1-40)” value is “significantly reduced” and the “levels of secreted Aβ(1-42)” value was “significantly reduced”. For the same compound, in data set [3], the T668 phosphorylation entry was “substantial decreases”.
For `CC[C@H](CO)Nc1nc(NCc2ccccc2)c2ncn(C(C)C)c2n1` [roscovitine], the “T668 phosphorylation induced by ionomycin” value in data set [1] is on record as “inhibited”. In data set [4], the “APP distribution in iodixanol step gradient” value is given as “shifted to heavier membrane fractions”. Moreover, the “cell viability, MTT assay” value with rat cortical neurons is given as “not due to a decline in cell viability”. Also, in data set [5], the “cell viability, MTT assay” value is “not due to a decline in cell viability”. In data set [2], the “levels of secreted Aβ(1-40)” value is recorded as “significantly reduced” and the “levels of secreted Aβ(1-42)” value is “significantly reduced”. Besides, in data set [6], the “secreted beta-amyloid (1-40) (Aβ(1-40)) levels” value was “dose-dependent decrease” and the “secreted beta-amyloid (1-42) (Aβ(1-42)) levels” value is recorded as “also reduced”. The T668 phosphorylation result in data set [3] is given as “substantial decreases”.
